Measurements as given in US20220289679A1, “HETEROCYCLIC COMPOUND” (Takeda Pharmaceutical Company Limited, priority 2019, published 2022).

Molecular target: T1, human GCS (glucosylceramide synthase) (Homo sapiens, UniProt Q16739)
T1 construct: made in house; host or cells: Expi293F cells (transient expression; microsome fraction)
T1 sequence (Q16739 1-394): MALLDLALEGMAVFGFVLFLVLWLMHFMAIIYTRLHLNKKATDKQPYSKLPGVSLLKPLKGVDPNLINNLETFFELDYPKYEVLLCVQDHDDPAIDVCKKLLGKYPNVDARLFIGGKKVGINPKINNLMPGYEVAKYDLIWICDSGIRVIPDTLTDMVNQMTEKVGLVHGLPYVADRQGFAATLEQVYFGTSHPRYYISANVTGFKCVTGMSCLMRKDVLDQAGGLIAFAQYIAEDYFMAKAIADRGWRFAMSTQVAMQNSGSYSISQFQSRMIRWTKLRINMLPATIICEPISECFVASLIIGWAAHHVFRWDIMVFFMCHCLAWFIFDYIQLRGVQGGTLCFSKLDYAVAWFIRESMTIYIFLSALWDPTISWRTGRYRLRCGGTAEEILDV
Assay: Glucosylceramide Synthase (GCS) Assay
Format: biochemical
Conditions: test compound 10 μM; microsome fraction of Expi293F cells expressing human GCS; 1.7 μM UDP-glucose, 3 μM C8 ceramide; room temperature 60 min; C8 glucosylceramide by Rapidfire MS/MS; read-out: GCS enzyme inhibitory rate at 10 μM (%)
Procedure, shortened: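 Test compounds were run at a final 10 μM against liposomal C8 ceramide (3 μM) and UDP-glucose at its Km (1.7 μM). Human GCS came as microsomes from transfected Expi293F cells, incubated 60 min at room temperature, pH 7.5. Product measured by RapidFire MS/MS; 0% and 100% inhibition were DMSO and no-enzyme wells.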

Q: For CC(C)(C#N)c1ccc(NC(=O)c2cccn(-c3ccc(F)cc3OCC(F)(F)F)c2=O)cn1 [Example 87, N-[6-(2-cyanopropan-2-yl)pyridin-3-yl]-1-[4-fluoro-2-(2,2,2-trifluoroethoxy)phenyl]-2-oxo-1,2-dihydropyridine-3-carboxamide], which inhibition at 10 µM is on record?
A: 99%

Q: For CC(C)(C#N)c1ccc(NC(=O)c2cccn(-c3ccccc3OCC(F)(F)F)c2=O)cn1 [Example 88, N-[6-(2-cyanopropan-2-yl)pyridin-3-yl]-2-oxo-1-[2-(2,2,2-trifluoroethoxy)phenyl]-1,2-dihydropyridine-3-carboxamide], which inhibition at 10 µM is on record?
A: 100%

Q: With O=C(Nc1ccc(C(O)(C(F)(F)F)C(F)(F)F)cc1)c1cccn(-c2ccccc2OCC(F)(F)F)c1=O [Example 89, N-[4-(1,1,1,3,3,3-hexafluoro-2-hydroxypropan-2-yl)phenyl]-2-oxo-1-[2-(2,2,2-trifluoroethoxy)phenyl]-1,2-dihydropyridine-3-carboxamide] as the compound, how does the inhibition at 10 µM read?
A: 100%

Q: Which inhibition at 10 µM does the source give for CC(C)(O)c1ccc(NC(=O)c2cccn(-c3ccnnc3OCC(F)(F)F)c2=O)cc1 [Example 90, N-[4-(2-hydroxypropan-2-yl)phenyl]-2-oxo-1-[3-(2,2,2-trifluoroethoxy)pyridazin-4-yl]-1,2-dihydropyridine-3-carboxamide] here?
A: 90%

Q: For COC(C)(C)c1ccc(NC(=O)c2cccn(-c3ccc(F)cc3OCC(F)(F)F)c2=O)cn1 [Example 91, 1-[4-fluoro-2-(2,2,2-trifluoroethoxy)phenyl]-N-[6-(2-methoxypropan-2-yl)pyridin-3-yl]-2-oxo-1,2-dihydropyridine-3-carboxamide], which inhibition at 10 µM is on record?
A: 89%

Q: COC(C)(C)c1ccc(NC(=O)c2cccn(-c3ccccc3OCC(F)(F)F)c2=O)cn1 [Example 92, N-[6-(2-methoxypropan-2-yl)pyridin-3-yl]-2-oxo-1-[2-(2,2,2-trifluoroethoxy)phenyl]-1,2-dihydropyridine-3-carboxamide] was tested. Which inhibition at 10 µM did it give?
A: 95%

Q: Which inhibition at 10 µM does the source give for O=C(Nc1ccc(OCC(F)(F)F)nc1)c1cncn(-c2ccc(F)cc2OCC(F)(F)F)c1=O [Example 93, 1-[4-fluoro-2-(2,2,2-trifluoroethoxy)phenyl]-6-oxo-N-[6-(2,2,2-trifluoroethoxy)pyridin-3-yl]-1,6-dihydropyrimidine-5-carboxamide] here?
A: 99%

Q: How did the inhibition at 10 µM turn out when CC(C)(O)c1ccc(NC(=O)c2ccnn(-c3ccc(F)cc3OCC(F)(F)F)c2=O)cc1 [Example 95, 2-[4-fluoro-2-(2,2,2-trifluoroethoxy)phenyl]-N-[4-(2-hydroxypropan-2-yl)phenyl]-3-oxo-2,3-dihydropyridazine-4-carboxamide] was run?
A: 99%

Q: With O=C(Nc1ccc(C2(O)CCC2)cc1)c1cccn(-c2ccccc2OCC(F)(F)F)c1=O [Example 96, N-[4-(1-hydroxycyclobutyl)phenyl]-2-oxo-1-[2-(2,2,2-trifluoroethoxy)phenyl]-1,2-dihydropyridine-3-carboxamide] as the compound, how does the inhibition at 10 µM read?
A: 100%

Q: With O=C(Nc1ccc(C2(O)CCC2)cc1)c1cccn(-c2ccc(F)cc2OCC(F)(F)F)c1=O [Example 97, 1-[4-fluoro-2-(2,2,2-trifluoroethoxy)phenyl]-N-[4-(1-hydroxycyclobutyl)phenyl]-2-oxo-1,2-dihydropyridine-3-carboxamide] as the compound, how does the inhibition at 10 µM read?
A: 99%

Q: With CC(C)(O)c1ccc(NC(=O)c2cncn(-c3ccc(F)cc3OCC(F)(F)F)c2=O)cc1 [Example 98, 1-[4-fluoro-2-(2,2,2-trifluoroethoxy)phenyl]-N-[4-(2-hydroxypropan-2-yl)phenyl]-6-oxo-1,6-dihydropyrimidine-5-carboxamide] as the compound, how does the inhibition at 10 µM read?
A: 98%

Q: CC(F)(F)COc1ccccc1-n1cccc(C(=O)Nc2ccc(C(C)(C)O)cc2)c1=O [Example 99, 1-[2-(2,2-difluoropropoxy)phenyl]-N-[4-(2-hydroxypropan-2-yl)phenyl]-2-oxo-1,2-dihydropyridine-3-carboxamide] was tested. Which inhibition at 10 µM did it give?
A: 99%

Q: With Cc1ccc(C(=O)Nc2ccc(C(C)(C)O)cc2)c(=O)n1-c1ccc(F)cc1OCC(F)(F)F [Example 100, 1-[4-fluoro-2-(2,2,2-trifluoroethoxy)phenyl]-N-[4-(2-hydroxypropan-2-yl)phenyl]-6-methyl-2-oxo-1,2-dihydropyridine-3-carboxamide] as the compound, how does the inhibition at 10 µM read?
A: 70%

Q: O=C(Nc1ccc(OCC(F)(F)F)nc1)c1cccn(-c2ccc(F)cc2OCC(F)F)c1=O [Example 101, 1-[2-(2,2-difluoroethoxy)-4-fluorophenyl]-2-oxo-N-[6-(2,2,2-trifluoroethoxy)pyridin-3-yl]-1,2-dihydropyridine-3-carboxamide] was tested. Which inhibition at 10 µM did it give?
A: 99%

Q: Which inhibition at 10 µM does the source give for CC(C)(O)c1ccc(NC(=O)c2cccn(-c3ccc(F)cc3OCC(F)F)c2=O)cc1 [Example 102, 1-[2-(2,2-difluoroethoxy)-4-fluorophenyl]-N-[4-(2-hydroxypropan-2-yl)phenyl]-2-oxo-1,2-dihydropyridine-3-carboxamide] here?
A: 98%

Q: With O=C(Nc1ccc(C(O)(C(F)(F)F)C(F)(F)F)cc1)c1cccn(-c2ccc(F)cc2OCC(F)(F)F)c1=O [Example 103, 1-[4-fluoro-2-(2,2,2-trifluoroethoxy)phenyl]-N-[4-(1,1,1,3,3,3-hexafluoro-2-hydroxypropan-2-yl)phenyl]-2-oxo-1,2-dihydropyridine-3-carboxamide] as the compound, how does the inhibition at 10 µM read?
A: 100%

Q: How did the inhibition at 10 µM turn out when N#Cc1cc(F)ccc1-n1cccc(C(=O)Nc2ccc(C(O)(C(F)(F)F)C(F)(F)F)cc2)c1=O [Example 104, 1-(2-cyano-4-fluorophenyl)-N-[4-(1,1,1,3,3,3-hexafluoro-2-hydroxypropan-2-yl)phenyl]-2-oxo-1,2-dihydropyridine-3-carboxamide] was run?
A: 95%

Q: Which inhibition at 10 µM does the source give for CC(C)(O)COc1cc(F)ccc1-n1cccc(C(=O)Nc2ccc(C(O)(C(F)(F)F)C(F)(F)F)cc2)c1=O [Example 105, 1-[4-fluoro-2-(2-hydroxy-2-methylpropoxy)phenyl]-N-[4-(1,1,1,3,3,3-hexafluoro-2-hydroxypropan-2-yl)phenyl]-2-oxo-1,2-dihydropyridine-3-carboxamide] here?
A: 99%

Q: How did the inhibition at 10 µM turn out when CC(C)(O)c1ccc(NC(=O)c2ccnn(-c3ccc(F)cc3OCC(F)(F)C(F)(F)F)c2=O)cc1 [Example 106, 2-[4-fluoro-2-(2,2,3,3,3-pentafluoropropoxy)phenyl]-N-[4-(2-hydroxypropan-2-yl)phenyl]-3-oxo-2,3-dihydropyridazine-4-carboxamide] was run?
A: 99%

Q: Cc1cc(C(=O)Nc2ccc(C(C)(C)O)cc2)c(=O)n(-c2ccc(F)cc2OCC(F)(F)F)c1 [Example 107, 1-[4-fluoro-2-(2,2,2-trifluoroethoxy)phenyl]-N-[4-(2-hydroxypropan-2-yl)phenyl]-5-methyl-2-oxo-1,2-dihydropyridine-3-carboxamide] was tested. Which inhibition at 10 µM did it give?
A: 100%

Q: For CC(C)(O)c1ccc(NC(=O)c2cccn(-c3cc(F)c(F)cc3OCC(F)(F)F)c2=O)cc1 [Example 108, 1-[4,5-difluoro-2-(2,2,2-trifluoroethoxy)phenyl]-N-[4-(2-hydroxypropan-2-yl)phenyl]-2-oxo-1,2-dihydropyridine-3-carboxamide], which inhibition at 10 µM is on record?
A: 95%

Q: Which inhibition at 10 µM does the source give for Cc1cc(C(=O)Nc2ccc(C(O)(C(F)F)C(F)F)nc2)c(=O)n(-c2ccccc2OCC(F)F)n1 [Example 109, 2-[2-(2,2-difluoroethoxy)phenyl]-6-methyl-3-oxo-N-[6-(1,1,3,3-tetrafluoro-2-hydroxypropan-2-yl)pyridin-3-yl]-2,3-dihydropyridazine-4-carboxamide] here?
A: 100%

Q: For O=C(Nc1ccc(OCC(F)(F)F)nc1)c1cccn(-c2ncncc2OCC(F)(F)F)c1=O [Example 110, 2-oxo-N-[6-(2,2,2-trifluoroethoxy)pyridin-3-yl]-1-[5-(2,2,2-trifluoroethoxy)pyrimidin-4-yl]-1,2-dihydropyridine-3-carboxamide], which inhibition at 10 µM is on record?
A: 99%

Q: With CC(C)(O)c1ccc(NC(=O)c2cccn(-c3ccc(F)c(F)c3OCC(F)(F)F)c2=O)cc1 [Example 111, 1-[3,4-difluoro-2-(2,2,2-trifluoroethoxy)phenyl]-N-[4-(2-hydroxypropan-2-yl)phenyl]-2-oxo-1,2-dihydropyridine-3-carboxamide] as the compound, how does the inhibition at 10 µM read?
A: 98%

Q: Which inhibition at 10 µM does the source give for CC(C)(O)c1ccc(NC(=O)c2ccnn(-c3ccc(F)cc3OCC(F)(F)F)c2=O)cn1 [Example 112, 2-[4-fluoro-2-(2,2,2-trifluoroethoxy)phenyl]-N-[6-(2-hydroxypropan-2-yl)pyridin-3-yl]-3-oxo-2,3-dihydropyridazine-4-carboxamide] here?
A: 94%

Q: Which inhibition at 10 µM does the source give for CC(C)(O)c1ccc(NC(=O)c2cccn(-c3cc(F)ccc3OCC(F)(F)F)c2=O)cc1 [Example 113, 1-[5-fluoro-2-(2,2,2-trifluoroethoxy)phenyl]-N-[4-(2-hydroxypropan-2-yl)phenyl]-2-oxo-1,2-dihydropyridine-3-carboxamide] here?
A: 98%

Q: For CC(C)(O)c1ccc(NC(=O)c2cccn(-c3cccnc3OCC(F)(F)F)c2=O)cc1 [Example 114, N-[4-(2-hydroxypropan-2-yl)phenyl]-2-oxo-2′-(2,2,2-trifluoroethoxy)-2H-[1,3′-bipyridine]-3-carboxamide], which inhibition at 10 µM is on record?
A: 96%
